{"source": "patent US20250188077A1", "about": "“CRYSTAL FORM OF 1H-PYRROLO[2,3-C]PYRIDINE COMPOUND AND PREPARATION METHOD THEREFOR” (JUMBO DRUG BANK CO., LTD., priority 2022, published 2025)", "key": {"[1]": {"assay": "Hygroscopicity study by dynamic vapor sorption (DVS)", "type": "physicochemical", "settings": "80% RH/25° C.", "procedure": "Instrument model: SMS DVS Intrinsic dynamic vapor sorption instrument\nTest conditions: The sample (10 mg) was taken and placed in a DVS sample plate for testing.\nDetailed DVS parameters were as follows:\nDrying: 25° C., 0% RH drying for 2 hours\nRange of Rh (%) test step: 0%-95%-0% RH\nSMS DVS intrinsic dynamic vapor adsorption instrument\nA sample (10 mg) was taken and placed in a DVS sample plate for testing."}, "[2]": {"assay": "Solid stability test (XRPD crystal form after storage)", "type": "physicochemical", "source_text": "The samples placed at high temperature and humidity were sampled for XRPD testing on the 10th and 30th day; The samples exposed to light were put into a clean surface dish, laid into a thin layer, covered with a quartz glass cover, and sampled for XRPD testing on the 5th and 10th days; For the long-term test and accelerated test (shading), each sample were put into a double-layer LDPE bag, each layer of LDPE bag was respectively buckled and sealed, and then the LDPE bag was put into an aluminum foil bag with a package of desiccant and heat sealed. The samples were respectively placed at 25° C./60% RH, 30° C./65% RH and 40° C./75% RH for exploration, the test results were compared with the initial test results of 0 day and the test results were shown in Table 7 below."}, "[3]": {"test_system": "BCR-FMS-BaF3 cells", "assay": "CellTiter-Glo luminescent cell viability / cell proliferation assay", "type": "cell-based", "settings": "for IC50: 72 h, BCR-FMS-BaF3, 3 days incubation", "source_text": "Luminescent Cell Viability Assay (CellTiter-Glo® methold) from Promega was used for cell proliferation detection. CellTiter-Glo® Luminescent Cell Viability Assay (CellTiter-Glo® luminescent cell viability detection kit) was a homogeneous rapid detection method for detecting the viability of living cells in culture by quantitative determination of ATP. ATP was an indicator of the metabolism of living cells. Cell lysis and the resulting light signal were proportional to the amount of present ATP, and the amount of ATP is directly proportional to the number of living cells in the culture. The higher the fluorescence reading indicated the higher ATP content in the cell and also the higher the cell viability. Therefore, the inhibition degree of compound on cell proliferation can be monitored by fluorescence value. 1) The compound was diluted 2 mM with 100% DMSO, that is, 5 μL of 10 mM compound storage solution was taken and put into the first column of 96-well compound plate, then 20 μL of 100% DMSO were added and mixed well; 2) 20 μL of 100% DMSO was added to the second column to the tenth column of 96-well compound plate; 3) 5 μL of compound was taken from the first column to the second column and mixed well, and then 5 μL of compound was taken from the second column to the third column and mixed well. The above steps were repeated to the ninth column to complete the gradient dilution of the compound; 4) Preparation of compound working solution: 2 μL of compound per well from the second column of the compound plate was taken to a new 96 well compound plate, and 78 μL of cell culture medium per well was added; 2 μL of 100% DMSO from the negative control well was taken and 78 μL of cell culture medium was added; and 5) The compound concentration was the final concentration, in which the blank control well was the culture medium well without cells, and the negative control was 0.5% DMSO. 1) The BCR-FMS-BaF3 cell suspension was collected and centrifuged at 1000 rpm (revolutions per minute) for 5 minutes. The supernatant was removed, cells were resuspended with preheated medium and counted. After counting, the cell suspension was diluted with cell culture medium to the required density. Each well was inoculated with 80 μL cell suspension into 96 well cell culture plate. 2) On the day of the experiment, 20 μL of compound working solution was added to the cell plate and incubated for 3 days at 37° C. in a 5% CO2 incubator. [table] 3) After the incubation is completed, 20 μL of CTG detection reagent was added to each well of the cell plate, and incubated at 25° C. for 10 minutes. After the incubation is completed, EnVision was used for luminescence signal detection. […]"}, "[4]": {"assay": "Solid stability test (XRPD crystal form after storage)", "type": "physicochemical", "settings": "40° C./75% RH(open)"}}, "note": "Read-outs that look alike come from different tables or passages of the source.", "data": [{"smiles": "CNC(=O)c1nccc2c(-c3cnc(Nc4ccc(OC5CC5)nc4)cc3C)c[nH]c12.Cl", "values": [{"measurement": "Classification of hygroscopicity", "setting": "[1]", "result": "slight hygroscopicity"}, {"measurement": "ΔW (hygroscopic weight gain)", "setting": "[1]; DVS", "result": 0.28, "unit": "%"}, {"measurement": "Crystal form (XRPD)", "setting": "[2]; 0 days (initial)", "result": "crystal form B"}, {"measurement": "Crystal form (XRPD)", "setting": "[2]; 25° C./60% RH, 3 M", "result": "crystal form B"}, {"measurement": "Crystal form (XRPD)", "setting": "[2]; 25° C./60% RH, 6 M", "result": "crystal form B"}, {"measurement": "Crystal form (XRPD)", "setting": "[2]; 25° C./60% RH, 24 M", "result": "crystal form B"}, {"measurement": "Crystal form (XRPD)", "setting": "[2]; 30° C./65% RH, 1 M", "result": "crystal form B"}, {"measurement": "Crystal form (XRPD)", "setting": "[2]; 30° C./65% RH, 3 M", "result": "crystal form B"}, {"measurement": "Crystal form (XRPD)", "setting": "[2]; 30° C./65% RH, 6 M", "result": "crystal form B"}, {"measurement": "Crystal form (XRPD)", "setting": "[2]; high humidity (25° C./relative humidity 92.5%, open), 10 days", "result": "crystal form B"}, {"measurement": "Crystal form (XRPD)", "setting": "[2]; high humidity (25° C./relative humidity 92.5%, open), 30 days", "result": "crystal form B"}, {"measurement": "Crystal form (XRPD)", "setting": "[2]; high temperature (60° C., open), 10 days", "result": "crystal form B"}, {"measurement": "Crystal form (XRPD)", "setting": "[2]; high temperature (60° C., open), 30 days", "result": "crystal form B"}, {"measurement": "Solid stability (conclusion)", "setting": "[2]; influencing factors, light, acceleration and long-term experimental conditions", "result": "good stability"}, {"measurement": "Crystal form (XRPD)", "setting": "[2]; strong light (5000 lx and UV intensity 90 w/cm^2, open), 5 days", "result": "crystal form B"}, {"measurement": "Crystal form (XRPD)", "setting": "[2]; strong light (5000 lx and UV intensity 90 w/cm^2, open), 10 days", "result": "crystal form B"}, {"measurement": "IC50", "setting": "[3]; mean of N = 1 and N = 2, read-out: IC50 (nM) Mean value ± SD", "result": "2.46 ± 0.008", "unit": "nM"}, {"measurement": "IC50", "setting": "[3]; replicate N = 1, read-out: IC50 (nM) N = 1", "result": 2.46, "unit": "nM"}, {"measurement": "IC50", "setting": "[3]; replicate N = 2, read-out: IC50 (nM) N = 2", "result": 2.47, "unit": "nM"}, {"measurement": "Inhibition of proliferation of BCR-FMS-BaF3 cells (conclusion in words)", "setting": "[3]; BCR-FMS-BaF3 cells", "result": "significantly inhibit the proliferation"}, {"measurement": "Crystal form (XRPD)", "setting": "[4]; 1 M", "result": "crystal form B"}, {"measurement": "Crystal form (XRPD)", "setting": "[4]; 3 M", "result": "crystal form B"}, {"measurement": "Crystal form (XRPD)", "setting": "[4]; 6 M", "result": "crystal form B"}]}]}
